Data taken from ChEMBL document CHEMBL1140446, “Designed multiple ligands. An emerging drug discovery paradigm” (J Med Chem, 2005).
pIC50, pKd, pKi: −log10 of the molar value.

Columns and labels:
[1] = biological target: T1, 5-hydroxytryptamine receptor 1A (Homo sapiens, UniProt P08908); assay: Inhibitory concentration against 5-hydroxytryptamine 1A receptor
T1 sequence (P08908 whole entry): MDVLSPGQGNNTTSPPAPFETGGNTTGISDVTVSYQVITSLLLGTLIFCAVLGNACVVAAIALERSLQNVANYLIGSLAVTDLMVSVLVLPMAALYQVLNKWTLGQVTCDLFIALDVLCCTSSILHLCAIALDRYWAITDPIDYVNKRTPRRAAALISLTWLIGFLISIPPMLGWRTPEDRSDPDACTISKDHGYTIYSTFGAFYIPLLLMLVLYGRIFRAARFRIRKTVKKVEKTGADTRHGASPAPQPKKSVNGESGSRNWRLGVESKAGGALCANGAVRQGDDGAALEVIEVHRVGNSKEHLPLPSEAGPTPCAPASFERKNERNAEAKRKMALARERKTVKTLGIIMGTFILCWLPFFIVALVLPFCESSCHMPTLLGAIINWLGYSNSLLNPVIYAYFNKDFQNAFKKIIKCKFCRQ

[2] = biological target: 5-hydroxytryptamine receptor 2A (Homo sapiens, UniProt P28223)
Description: Inhibitory concentration against 5-hydroxytryptamine 2 receptor

D(2) dopamine receptor [3] = biological target: T2, D(2) dopamine receptor (Homo sapiens, UniProt P14416)
Description: Inhibitory concentration against dopamine receptor D2

[4] = biological target: T3, Adrenergic receptor alpha-1 (Homo sapiens, UniProt P35348+P25100+P35368)
T3 sequence (P35348 whole entry): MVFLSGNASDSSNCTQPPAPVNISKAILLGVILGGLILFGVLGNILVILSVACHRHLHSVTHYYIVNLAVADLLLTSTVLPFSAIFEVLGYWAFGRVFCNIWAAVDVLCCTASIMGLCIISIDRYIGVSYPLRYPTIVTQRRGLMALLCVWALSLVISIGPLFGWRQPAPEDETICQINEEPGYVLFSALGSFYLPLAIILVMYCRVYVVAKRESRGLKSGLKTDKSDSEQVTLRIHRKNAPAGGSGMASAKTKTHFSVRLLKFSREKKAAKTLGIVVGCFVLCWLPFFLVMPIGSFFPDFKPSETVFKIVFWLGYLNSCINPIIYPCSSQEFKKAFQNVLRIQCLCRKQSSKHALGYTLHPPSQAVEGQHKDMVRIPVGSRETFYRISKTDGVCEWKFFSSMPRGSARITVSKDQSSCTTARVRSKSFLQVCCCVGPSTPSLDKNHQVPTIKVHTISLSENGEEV
T3 sequence (P25100 whole entry): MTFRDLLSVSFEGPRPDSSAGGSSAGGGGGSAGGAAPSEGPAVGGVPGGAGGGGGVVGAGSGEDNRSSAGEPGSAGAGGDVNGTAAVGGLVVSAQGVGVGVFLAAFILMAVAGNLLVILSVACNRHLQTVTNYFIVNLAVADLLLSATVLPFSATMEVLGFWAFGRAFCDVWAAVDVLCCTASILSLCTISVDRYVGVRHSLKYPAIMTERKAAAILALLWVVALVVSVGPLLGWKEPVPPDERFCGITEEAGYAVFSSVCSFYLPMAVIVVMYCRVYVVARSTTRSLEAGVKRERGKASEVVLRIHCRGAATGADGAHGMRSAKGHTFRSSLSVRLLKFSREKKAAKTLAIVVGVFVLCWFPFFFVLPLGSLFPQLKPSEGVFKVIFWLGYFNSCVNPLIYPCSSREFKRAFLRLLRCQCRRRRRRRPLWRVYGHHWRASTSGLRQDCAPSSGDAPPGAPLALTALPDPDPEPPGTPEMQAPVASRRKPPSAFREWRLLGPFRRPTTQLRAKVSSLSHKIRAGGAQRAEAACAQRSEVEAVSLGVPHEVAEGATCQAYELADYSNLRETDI
T3 sequence (P35368 whole entry): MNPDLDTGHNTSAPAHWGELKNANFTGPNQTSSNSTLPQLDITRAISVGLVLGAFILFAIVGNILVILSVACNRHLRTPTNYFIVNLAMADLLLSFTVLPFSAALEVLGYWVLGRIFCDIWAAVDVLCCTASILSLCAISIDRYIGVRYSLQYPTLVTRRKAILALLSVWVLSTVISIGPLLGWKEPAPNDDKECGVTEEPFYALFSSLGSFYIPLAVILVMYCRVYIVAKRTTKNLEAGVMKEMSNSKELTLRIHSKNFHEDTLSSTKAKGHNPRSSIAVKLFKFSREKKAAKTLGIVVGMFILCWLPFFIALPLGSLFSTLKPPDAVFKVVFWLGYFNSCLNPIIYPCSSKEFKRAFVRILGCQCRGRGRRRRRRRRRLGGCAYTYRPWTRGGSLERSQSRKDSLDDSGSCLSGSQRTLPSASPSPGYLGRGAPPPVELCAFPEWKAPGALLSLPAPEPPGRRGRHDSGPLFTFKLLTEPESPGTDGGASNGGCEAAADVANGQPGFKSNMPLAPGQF
Description: Inhibitory concentration against alpha adrenergic receptor

Substance-P receptor [5] = biological target: T4, Substance-P receptor (Homo sapiens, UniProt P25103)
Description: Binding affinity towards tachykinin receptor 1

Substance-K receptor = biological target: T5, Substance-K receptor (Homo sapiens, UniProt P21452); assay: Binding affinity towards tachykinin receptor 2
T5 sequence (P21452 whole entry): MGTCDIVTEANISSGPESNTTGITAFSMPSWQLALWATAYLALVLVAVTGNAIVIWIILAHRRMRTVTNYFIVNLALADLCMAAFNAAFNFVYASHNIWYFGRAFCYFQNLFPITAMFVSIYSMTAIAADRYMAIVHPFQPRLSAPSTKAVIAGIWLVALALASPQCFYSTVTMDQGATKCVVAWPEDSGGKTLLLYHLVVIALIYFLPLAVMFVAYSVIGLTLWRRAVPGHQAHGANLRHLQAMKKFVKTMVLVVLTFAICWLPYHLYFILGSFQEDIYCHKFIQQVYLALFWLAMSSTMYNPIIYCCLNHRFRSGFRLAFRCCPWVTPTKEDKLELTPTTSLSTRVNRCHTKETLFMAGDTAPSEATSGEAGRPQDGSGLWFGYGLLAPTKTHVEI

Histamine H1 receptor [6] = biological target: T6, Histamine H1 receptor (Homo sapiens, UniProt P35367)
Description: Inhibitory concentration against histamine H1 receptor

[7] = biological target: Platelet-activating factor receptor (Homo sapiens, UniProt P25105)
Description: Inhibitory concentration against platelet activating factor receptor

[8] = biological target: Beta-2 adrenergic receptor (Homo sapiens, UniProt P07550); assay: Negative logarithm causing 50% receptor occupancy against beta-2 adrenergic receptor
[9] = biological target: T7, Sodium-dependent serotonin transporter (Homo sapiens, UniProt P31645); assay: Negative logarithm causing 50% receptor occupancy against serotonin transporter
Substance-P receptor [10] = biological target: T4, Substance-P receptor; remark: listed apart in the source
Description: Inhibitory concentration against neurokinin NK1 receptor

[11] = biological target: T7, Sodium-dependent serotonin transporter
Description: Inhibitory concentration against serotonin transporter

[12] = biological target: T3, Adrenergic receptor alpha-1; assay: Inhibition constant against alpha adrenergic receptor; assay type: protein assay
[13] = biological target: 5-hydroxytryptamine receptor 1B (Homo sapiens, UniProt P28222)
Description: Inhibition constant against 5-HT 1B receptor

[14] = biological target: 5-hydroxytryptamine receptor 1D (Homo sapiens, UniProt P28221); assay: Inhibition constant against 5-hydroxytryptamine 1D receptor
D(2) dopamine receptor [15] = biological target: T2, D(2) dopamine receptor; remark: listed apart in the source
Description: Inhibition constant against dopamine receptor D2

Neprilysin [16] = biological target: T8, Neprilysin (Homo sapiens, UniProt P08473)
Description: Inhibitory concentration against neutral endopeptidase

[17] = biological target: T9, Angiotensin-converting enzyme (Homo sapiens, UniProt P12821); assay: Inhibitory concentration against angiotensin I converting enzyme
Histamine H3 receptor = Histamine H3 receptor (Homo sapiens, UniProt Q9Y5N1); assay: Inhibition constant against histamine H3 receptor
Histamine H1 receptor [18] = biological target: T6, Histamine H1 receptor; remark: listed apart in the source
Description: Inhibition constant against histamine H1 receptor

Acetylcholinesterase = Acetylcholinesterase (Homo sapiens, UniProt P22303)
Description: Inhibitory concentration against acetylcholinesterase

Procathepsin L = Procathepsin L (Homo sapiens, UniProt P07711); assay: Inhibitory concentration against cathepsin L
[19] = biological target: Tyrosine-protein kinase ABL1 (Homo sapiens, UniProt P00519); assay: Inhibitory concentration against v-Abl tyrosine kinase
[20] = biological target: Cysteinyl leukotriene receptor 1 (Cavia porcellus, UniProt Q2NNR5); assay: Inhibitory concentration against LTD4-induced contraction of guinea pig ileum at 10 uM concentration; assay type: tissue-based
Histamine H1 receptor [21] = biological target: T6, Histamine H1 receptor; remark: listed apart in the source
Description: Dissociation constant against histamine H1 receptor

[22] = Oral bioavailability; assay type: ADME, organism-based; conditions: eutheria, in vivo
[23] = biological target: T7, Sodium-dependent serotonin transporter; remark: listed apart in the source
Description: Inhibition constant against serotonin transporter

[24] = biological target: T1, 5-hydroxytryptamine receptor 1A
Description: Inhibition constant against 5-hydroxytryptamine 1A receptor

[25] = biological target: 5-hydroxytryptamine receptor 2A (Rattus norvegicus, UniProt P14842); assay: Inhibition constant against 5-Hydroxytryptamine 2 receptor in olfactory bulbectomized rat
Substance-P receptor [26] = biological target: T4, Substance-P receptor; assay: Negative logarithm causing 50% receptor occupancy against tachykinin receptor 1
[27] = biological target: Endothelin-converting enzyme 1 (Homo sapiens, UniProt P42892); assay: Inhibition constant against endothelin converting enzyme 1
[28] = biological target: T9, Angiotensin-converting enzyme; assay: Inhibition constant against angiotensin I converting enzyme
Neprilysin [29] = biological target: T8, Neprilysin; assay: Inhibition constant against neutral endopeptidase
[30] = biological target: Sodium-dependent dopamine transporter (Homo sapiens, UniProt Q01959)
Description: Inhibitory concentration against dopamine transporter

[31] = biological target: T10, Gastrin/cholecystokinin type B receptor (Homo sapiens, UniProt P32239); assay: Inhibitory concentration against Cholecystokinin B receptor
[32] = biological target: T10, Gastrin/cholecystokinin type B receptor; assay: Inhibitory concentration against gastrin receptor
Histamine H2 receptor = Histamine H2 receptor (Homo sapiens, UniProt P25021); assay: Negative logarithm of the drug concentration against H2 histamine receptor; conditions: read-out: pA2 (converted)
[33] = biological target: Adrenergic receptor alpha-1 (Homo sapiens) (UniProt P35348+P25100+P35368); assay: Inhibition constant against alpha adrenergic receptor at 0.1 uM concentration; assay type: protein assay

T9 sequence (P12821 whole entry): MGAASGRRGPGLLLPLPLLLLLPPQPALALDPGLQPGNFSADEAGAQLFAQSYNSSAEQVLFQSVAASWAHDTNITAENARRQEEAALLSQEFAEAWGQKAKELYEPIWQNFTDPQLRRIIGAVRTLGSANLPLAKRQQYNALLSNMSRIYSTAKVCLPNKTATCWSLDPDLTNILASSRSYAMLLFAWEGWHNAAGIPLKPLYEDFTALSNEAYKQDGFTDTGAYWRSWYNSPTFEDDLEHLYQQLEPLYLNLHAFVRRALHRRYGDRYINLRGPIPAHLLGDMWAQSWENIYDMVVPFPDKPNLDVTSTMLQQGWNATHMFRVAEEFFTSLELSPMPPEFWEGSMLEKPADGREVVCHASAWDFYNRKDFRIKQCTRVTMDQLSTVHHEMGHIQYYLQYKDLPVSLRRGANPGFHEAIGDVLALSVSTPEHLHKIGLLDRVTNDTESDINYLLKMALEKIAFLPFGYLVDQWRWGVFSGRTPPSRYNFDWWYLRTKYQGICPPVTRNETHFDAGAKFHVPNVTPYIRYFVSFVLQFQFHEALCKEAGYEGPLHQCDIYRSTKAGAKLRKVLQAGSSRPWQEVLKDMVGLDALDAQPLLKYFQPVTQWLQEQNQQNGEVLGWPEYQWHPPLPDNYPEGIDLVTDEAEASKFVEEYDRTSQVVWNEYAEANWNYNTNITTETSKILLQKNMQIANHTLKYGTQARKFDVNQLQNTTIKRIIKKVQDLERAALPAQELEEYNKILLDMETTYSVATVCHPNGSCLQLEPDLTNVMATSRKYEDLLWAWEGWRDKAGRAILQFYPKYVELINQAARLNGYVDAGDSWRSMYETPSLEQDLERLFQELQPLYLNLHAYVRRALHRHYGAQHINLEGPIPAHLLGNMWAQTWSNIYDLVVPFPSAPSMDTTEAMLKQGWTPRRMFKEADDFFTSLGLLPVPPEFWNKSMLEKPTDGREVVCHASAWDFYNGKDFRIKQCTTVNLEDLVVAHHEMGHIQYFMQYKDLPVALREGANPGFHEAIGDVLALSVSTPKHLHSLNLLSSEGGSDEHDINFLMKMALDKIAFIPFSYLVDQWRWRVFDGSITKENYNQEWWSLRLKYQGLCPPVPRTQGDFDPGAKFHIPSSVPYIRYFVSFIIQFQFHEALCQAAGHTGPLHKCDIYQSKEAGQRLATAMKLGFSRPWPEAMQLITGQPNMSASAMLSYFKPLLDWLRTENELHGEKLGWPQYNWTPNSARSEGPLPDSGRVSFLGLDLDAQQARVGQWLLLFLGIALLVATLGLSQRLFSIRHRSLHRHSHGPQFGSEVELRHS
T4 sequence (P25103 whole entry): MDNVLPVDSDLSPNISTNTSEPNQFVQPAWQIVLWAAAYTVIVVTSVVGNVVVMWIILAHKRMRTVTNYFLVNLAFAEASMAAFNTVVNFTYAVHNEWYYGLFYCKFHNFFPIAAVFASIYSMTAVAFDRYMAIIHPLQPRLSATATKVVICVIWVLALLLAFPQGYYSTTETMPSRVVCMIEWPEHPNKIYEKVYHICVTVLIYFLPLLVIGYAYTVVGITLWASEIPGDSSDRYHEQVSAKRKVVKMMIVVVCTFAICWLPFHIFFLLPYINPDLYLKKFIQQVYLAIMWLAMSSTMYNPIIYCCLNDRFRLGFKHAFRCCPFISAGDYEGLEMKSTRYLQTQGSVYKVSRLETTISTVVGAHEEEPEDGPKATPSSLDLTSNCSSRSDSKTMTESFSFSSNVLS
T8 sequence (P08473 whole entry): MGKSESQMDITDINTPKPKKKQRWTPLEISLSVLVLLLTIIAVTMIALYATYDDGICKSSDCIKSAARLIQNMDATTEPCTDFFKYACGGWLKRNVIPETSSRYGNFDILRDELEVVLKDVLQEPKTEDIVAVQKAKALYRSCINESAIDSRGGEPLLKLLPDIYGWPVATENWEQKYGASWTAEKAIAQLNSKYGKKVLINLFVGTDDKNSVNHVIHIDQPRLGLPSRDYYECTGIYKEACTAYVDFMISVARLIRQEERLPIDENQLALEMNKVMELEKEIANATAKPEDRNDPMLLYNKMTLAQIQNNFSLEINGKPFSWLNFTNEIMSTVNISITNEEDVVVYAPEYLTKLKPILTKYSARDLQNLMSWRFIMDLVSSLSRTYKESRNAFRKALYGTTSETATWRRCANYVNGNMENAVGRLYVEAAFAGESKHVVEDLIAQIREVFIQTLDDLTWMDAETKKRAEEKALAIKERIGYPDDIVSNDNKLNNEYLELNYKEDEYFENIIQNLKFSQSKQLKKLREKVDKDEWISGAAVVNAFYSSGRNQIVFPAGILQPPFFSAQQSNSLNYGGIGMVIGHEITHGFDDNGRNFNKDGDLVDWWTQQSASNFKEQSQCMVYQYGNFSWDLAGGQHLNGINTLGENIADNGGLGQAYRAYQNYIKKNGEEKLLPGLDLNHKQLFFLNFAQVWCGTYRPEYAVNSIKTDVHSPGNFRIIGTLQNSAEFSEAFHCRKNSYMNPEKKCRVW
T6 sequence (P35367 whole entry): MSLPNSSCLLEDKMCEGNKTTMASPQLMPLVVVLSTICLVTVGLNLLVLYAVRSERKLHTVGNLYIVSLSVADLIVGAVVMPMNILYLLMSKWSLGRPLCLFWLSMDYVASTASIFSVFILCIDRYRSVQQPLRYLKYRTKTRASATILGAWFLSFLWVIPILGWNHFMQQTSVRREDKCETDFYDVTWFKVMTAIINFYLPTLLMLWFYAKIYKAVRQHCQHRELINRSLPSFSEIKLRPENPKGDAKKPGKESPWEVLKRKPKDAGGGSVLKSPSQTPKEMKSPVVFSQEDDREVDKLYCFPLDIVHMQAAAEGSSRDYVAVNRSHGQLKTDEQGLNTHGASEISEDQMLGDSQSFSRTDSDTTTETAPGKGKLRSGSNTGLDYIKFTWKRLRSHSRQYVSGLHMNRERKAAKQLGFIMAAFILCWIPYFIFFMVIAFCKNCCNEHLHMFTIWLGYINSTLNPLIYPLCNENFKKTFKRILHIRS
T2 sequence (P14416 whole entry): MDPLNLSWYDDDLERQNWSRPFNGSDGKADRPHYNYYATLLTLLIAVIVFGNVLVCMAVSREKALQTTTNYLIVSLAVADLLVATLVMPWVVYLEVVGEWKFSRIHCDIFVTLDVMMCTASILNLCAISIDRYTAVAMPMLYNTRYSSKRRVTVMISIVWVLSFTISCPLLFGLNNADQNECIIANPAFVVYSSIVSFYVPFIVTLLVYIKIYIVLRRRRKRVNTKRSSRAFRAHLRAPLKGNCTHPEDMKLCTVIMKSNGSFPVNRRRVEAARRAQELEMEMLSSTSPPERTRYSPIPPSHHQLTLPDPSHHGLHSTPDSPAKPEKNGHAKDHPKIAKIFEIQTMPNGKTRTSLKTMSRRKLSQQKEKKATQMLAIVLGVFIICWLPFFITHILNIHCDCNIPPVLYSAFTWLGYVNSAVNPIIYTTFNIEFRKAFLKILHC
T7 sequence (P31645 whole entry): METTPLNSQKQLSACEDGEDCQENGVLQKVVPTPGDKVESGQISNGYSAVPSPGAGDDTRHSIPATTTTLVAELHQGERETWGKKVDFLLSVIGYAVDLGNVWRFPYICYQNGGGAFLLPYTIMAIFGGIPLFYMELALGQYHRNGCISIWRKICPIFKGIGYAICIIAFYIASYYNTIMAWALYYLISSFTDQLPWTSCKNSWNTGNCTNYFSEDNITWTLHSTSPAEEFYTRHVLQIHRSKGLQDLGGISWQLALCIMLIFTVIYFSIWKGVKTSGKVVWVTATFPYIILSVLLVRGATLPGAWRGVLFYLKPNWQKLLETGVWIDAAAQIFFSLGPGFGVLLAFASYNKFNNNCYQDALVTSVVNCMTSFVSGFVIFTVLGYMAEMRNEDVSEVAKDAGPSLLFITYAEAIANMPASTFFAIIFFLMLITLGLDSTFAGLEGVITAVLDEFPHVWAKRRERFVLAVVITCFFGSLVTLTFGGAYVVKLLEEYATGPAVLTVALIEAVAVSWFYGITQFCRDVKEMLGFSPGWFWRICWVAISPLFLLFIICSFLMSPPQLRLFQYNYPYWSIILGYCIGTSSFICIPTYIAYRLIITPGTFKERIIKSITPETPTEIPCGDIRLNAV
Chain of 5-hydroxytryptamine receptor 2A (Homo sapiens, UniProt P28223) (P28223 whole entry): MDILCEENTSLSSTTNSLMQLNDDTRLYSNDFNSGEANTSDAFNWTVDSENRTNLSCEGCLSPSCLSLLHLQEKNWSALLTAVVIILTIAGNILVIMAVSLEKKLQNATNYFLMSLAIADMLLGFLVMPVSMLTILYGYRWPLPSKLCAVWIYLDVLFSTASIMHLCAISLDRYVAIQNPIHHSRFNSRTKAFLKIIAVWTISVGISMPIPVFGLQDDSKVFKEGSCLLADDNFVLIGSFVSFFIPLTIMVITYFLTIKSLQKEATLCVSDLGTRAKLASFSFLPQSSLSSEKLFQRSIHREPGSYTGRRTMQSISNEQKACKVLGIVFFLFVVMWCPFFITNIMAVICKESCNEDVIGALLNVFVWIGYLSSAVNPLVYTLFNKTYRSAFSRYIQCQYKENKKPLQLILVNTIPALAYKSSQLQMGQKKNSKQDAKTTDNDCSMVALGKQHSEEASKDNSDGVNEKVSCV
Chain of Platelet-activating factor receptor (P25105 whole entry): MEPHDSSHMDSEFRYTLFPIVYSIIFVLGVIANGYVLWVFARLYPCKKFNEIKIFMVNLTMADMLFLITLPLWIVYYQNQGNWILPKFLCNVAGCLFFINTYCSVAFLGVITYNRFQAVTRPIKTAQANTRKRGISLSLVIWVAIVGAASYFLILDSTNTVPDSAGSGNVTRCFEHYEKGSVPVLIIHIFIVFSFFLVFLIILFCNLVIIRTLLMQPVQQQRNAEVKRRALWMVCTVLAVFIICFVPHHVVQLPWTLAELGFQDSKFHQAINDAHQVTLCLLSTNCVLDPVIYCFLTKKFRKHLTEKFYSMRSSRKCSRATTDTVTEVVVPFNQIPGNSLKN

With `O=C1Cc2cc(CCN3CCN(c4cccc5ccccc45)CC3)ccc2N1` the pIC50 [1] was 8.30, the pIC50 [2] was 7.70 and the pIC50 (D(2) dopamine receptor [3]) was 7.36. It also gave an IC50 [4] of 45 nM.

In the case of `CN(C(=O)c1cc(C(F)(F)F)cc(C(F)(F)F)c1)[C@@H](/C=C/C(=O)NCCN1CCCCC1)Cc1ccc(Cl)cc1`, the pIC50 (Substance-P receptor [5]) was 8.00 and the pIC50 (Substance-K receptor) was 7.31.

`CC(=O)N1CCC(=C2c3ccc(Cl)cc3CCc3cccnc32)CC1` [SCH-37370] showed a pIC50 (Histamine H1 receptor [6]) of 7.00 and a pIC50 [7] of 6.08.

For `Cc1ccc2c(OCCN3CCC(Cc4ccc5c(c4)NC(=O)CO5)CC3)cccc2n1`, the “Log Ki” value [8] was under -6.3 and the pKi [9] was 8.20.

`COc1ccc(C2(CCN3CCC(C(=O)c4nc5ccccc5n4Cc4ccc(F)cc4)CC3)CCN(C(=O)c3cc(OC)c(OC)c(OC)c3)C2)cc1OC` (stereo not drawn) showed a pIC50 (Substance-P receptor [10]) of 7.51.

Work on `C[C@@H]1CN(c2cccc3cc(F)ccc23)CCN1CCC1OCCc2c1sc(C(N)=O)c2Cl` (stereo partly drawn) yielded a pIC50 [11] of 8.68, a Ki [12] of 140 nM and a pKi [13] of under 6.00. For the same compound, the pKi [14] was 7.35 and the pKi (D(2) dopamine receptor [15]) was 6.54.

Work on `O=C(N[C@H]1Cc2ccccc2C2CCC[C@H](C(=O)O)N2C1=O)[C@H](S)Cc1ccccc1` (stereo partly drawn) yielded a pIC50 (Neprilysin [16]) of 10.10 and a pIC50 [17] of 9.96.

With `O=C(O)CCNC(=O)C(CS)Cc1ccccc1` (stereo not drawn) the pIC50 (Neprilysin [16]) was 8.03 and the pIC50 [17] was 4.49.

Compound `CN(CCCCc1c[nH]cn1)CCC(c1ccc(Cl)cc1)c1ccccn1` (stereo not drawn) has a pKi (Histamine H3 receptor) of 7.82 and a pKi (Histamine H1 receptor [18]) of 8.15.

`CN[C@@H](CCOc1ccc([N+](=O)[O-])cc1)c1ccc(OC(=O)N(C)C)cc1` showed a pIC50 [11] of 7.38 and a pIC50 (Acetylcholinesterase) of 7.00.

Work on `CC(C)C[C@H](CC(=O)NO)C(=O)N[C@@H](Cc1ccccc1)C(=O)N[C@@H](C)C=O` yielded a pIC50 (Procathepsin L) of 7.60.

Compound `Cc1cncc(CN2CCC(=C3c4ccc(Cl)cc4CCc4cccnc43)CC2)c1` [RUPATADINE] has a pIC50 [7] of 5.43.

Work on `O=C(Nc1cccc(Nc2nccc(-c3cccnc3)n2)c1)c1ccccc1` yielded a pIC50 [19] of 6.40.

`O=C(N[C@H](CN1CCC(OC2c3ccccc3CCc3ccccc32)CC1)C(=O)O)OCc1ccccc1` showed a pIC50 [20] of 5.81 and a pKd (Histamine H1 receptor [21]) of 6.39.

With `COc1cc(C(=O)N2CC[C@](CCN3CCC(C(N)=O)(c4ccccc4)CC3)(c3ccc(Cl)c(Cl)c3)C2)cc(OC)c1OC` the pIC50 (Histamine H1 receptor [6]) was 8.52 and the pIC50 (Substance-P receptor [10]) was under 5.00.

For `NC(=O)c1ccc2c(c1)CCOC2CCN1CC=C(c2c[nH]c3cc(F)ccc23)CC1` (stereo not drawn), the pIC50 [11] was 9.96, the Ki [12] was 16 nM and the pKi (D(2) dopamine receptor [15]) was 8.33.

Work on `OC(CCc1ccccc1)CN1CCC2(CC1)OCc1c2ccc2ccccc12` (stereo not drawn) yielded a bioavailability [22] of 65% and a pKi [23] of 8.00.

Compound `COc1cccc2c1CCC[C@H]2CN(C)CCc1ccc2ccoc2c1` has a pKi [24] of 8.70 and a pKi [25] of 6.84.

Work on `O=C(CCc1cc(C(F)(F)F)cc(C(F)(F)F)c1)N(c1ccc(F)cc1)C1CCNCC1` yielded a pKi (Substance-P receptor [26]) of 6.70 and a pKi [9] of 6.60.

Work on `COc1ccc2c(c1)CC[C@H]2[C@@H](CS)C(=O)N[C@@H](Cc1c[nH]c2ccccc12)C(=O)O` yielded a pKi [27] of 8.00, a pKi [28] of 8.89 and a pKi (Neprilysin [29]) of 7.62.

With `CN(C)C[C@@H]1C2CCC(CC2)[C@@H]1c1cccc(Cl)c1` the pIC50 [30] was 7.55 and the pIC50 [11] was 6.57.

Compound `c1ccc2c(N3CCNCC3)cccc2c1` has a pIC50 [2] of 7.21 and a pIC50 (D(2) dopamine receptor [3]) of under 6.00.

Compound `CN1C(=O)[C@H](NC(=O)Nc2ccc(CC(=O)NCCC(=O)NCCCOc3cccc(CN4CCCCC4)c3)cc2)N=C(c2ccccc2)c2ccccc21` has a pIC50 [31] of 6.54, a pIC50 [32] of 6.87 and a Kb (Histamine H2 receptor) of 251 nM.

In the case of `Fc1cc2c(c(OCCNCCCc3c[nH]c4ccc(F)cc34)c1)OCCC2`, the inhibition [33] was 79% and the pKi [23] was 9.30.

`CN1CCC(=C2c3ccccc3C=Cc3ccccc32)CC1` [CYPROHEPTADINE] showed a pIC50 [20] of under 4.00.
